The record followed here is ChEMBL document CHEMBL4007425, “Drug Repurposing of Histone Deacetylase Inhibitors That Alleviate Neutrophilic Inflammation in Acute Lung Injury and Idiopathic Pulmonary Fibrosis via Inhibiting Leukotriene A4 Hydrolase and Blocking LTB4 Biosynthesis” (J Med Chem, 2017).

The source made the active and inactive calls. No cut-off for these calls is given here.

Data set [1] relates to Mus musculus. Put plainly: Anti-inflammatory activity in BLM-induced C57BL/6 mouse model of acute lung injury assessed as reduction in IL-6 level in BALF at 10 and 25 mg/kg, ip qd for 7 days post BLM challenge measured on day 7 by ELISA. The data set is classed as functional, organism-based.
The species named for data set [2] is Mus musculus. The settings on record: C57BL/6, at 25 mg/kg.
Description: Inhibition of LTB4 biosynthesis in LPS-induced C57BL/6 mouse model of acute lung injury BLAF at 25 mg/kg, ip by ELISA
The subject of data set [3] is Mus musculus. The data set can be described thus: Protection against BLM-induced lung fibrosis in C57BL/6 mouse assessed as TGF-beta1 level at 10 and 25 mg/kg, ip qd for 7 days post BLM challenge measured on day 7 by qRT-PCR method. The data set is classed as functional, organism-based. On the technique in general: In qPCR the cycle at which signal appears reflects the starting amount.

The test system of data set [4] is Mus musculus. Put plainly: Anti-inflammatory activity in BLM-induced C57BL/6 mouse model of acute lung neutrophilic inflammation assessed as MPO activity at 25 mg/kg, ip qd for 7 days post BLM challenge measured on day 7 (reference value: 0.98 U/g). The format is functional.
The test system of data set [5] is Mus musculus. Put plainly: Anti-inflammatory activity in BLM-induced C57BL/6 mouse model of acute lung neutrophilic inflammation assessed as protein concentration in BALF at 25 mg/kg, ip qd for 7 days post BLM challenge measured on day 7 (reference value: 2.39 mg/ml). The format is functional.
Data set [6] relates to Mus musculus. The data set can be described thus: Protection against BLM-induced lung fibrosis in C57BL/6 mouse assessed as TGF-beta1 level at 25 mg/kg, ip qd for 7 days post BLM challenge measured on day 14 by ELISA (reference value: 99.30 pg/ml). The data set is classed as functional. A general note: In an ELISA, binding on a coated surface is turned into a signal by an enzyme label.

The subject of data set [7] is Mus musculus. The data set can be described thus: Protection against BLM-induced lung fibrosis in C57BL/6 mouse assessed as reduction in deposition of collagen fibers at 10 and 25 mg/kg, ip qd for 7 days post BLM challenge measured on day 7 by Massons trichrome staining based method. The data set is classed as functional, organism-based.
Data set [8] deals with Mus musculus. The data set can be described thus: Protection against BLM-induced lung fibrosis in C57BL/6 mouse assessed as reduction in hydroxyproline level at 25 mg/kg, ip qd for 7 days post BLM challenge measured on day 14. The data set is classed as functional. The settings on record: C57BL/6, ip.
The test system of data set [9] is Mus musculus. Put plainly: Anti-inflammatory activity in BLM-induced C57BL/6 mouse model of acute lung neutrophilic inflammation assessed as reduction neutrophil count at 50 mg/kg, ip qd for 7 days post BLM challenge measured on day 7. The data set is classed as functional, organism-based.
The subject of data set [10] is Mus musculus. Put plainly: Protection against BLM-induced lung fibrosis in C57BL/6 mouse assessed as reduction in deposition of collagen fibers at 25 and 50 mg/kg, ip qd for 7 days post BLM challenge measured on day 7 by Massons trichrome staining based method. The format is functional, organism-based.
The subject of data set [11] is Mus musculus. The data set can be described thus: Protection against BLM-induced lung fibrosis in C57BL/6 mouse assessed as TGF-beta1 level at 25 and 50 mg/kg, ip qd for 7 days post BLM challenge measured on day 14 by qRT-PCR method. The format is functional, organism-based.
Data set [12] has as its system Plasma. Put plainly: Plasma concentration in human. The data set is classed as ADME, cell-free.
In data set [13] the test system is Mus musculus. The data set can be described thus: Anti-inflammatory activity in LPS-induced C57BL/6 mouse model of acute lung injury assessed as reduction in total number of leucocytes in BALF at 10 to 50 mg/kg, ip pretreated for 1 hr followed LPS challenge measured after 24 hrs. The data set is classed as functional, organism-based.
In data set [14] the test system is Plasma. The data set can be described thus: Plasma concentration in mouse by liquid chromatography mass spectrometry. The format is ADME, cell-free.
The test system of data set [15] is Mus musculus. The data set can be described thus: Anti-inflammatory activity in BLM-induced C57BL/6 mouse model of acute lung neutrophilic inflammation assessed as reduction in number of lymphocytes in BALF at 25 and 50 mg/kg, ip qd for 7 days post BLM challenge measured on day 7. The data set is classed as functional, organism-based.
The test system of data set [16] is Mus musculus. Put plainly: Anti-inflammatory activity in LPS-induced C57BL/6 mouse model of acute lung injury assessed as reduction in IL-1beta mRNA level pretreated intraperitoneally for 1 hr followed LPS challenge after 24 hrs by qRT-PCR method. The format is functional.
Data set [17] deals with Mus musculus. The data set can be described thus: Protection against BLM-induced lung fibrosis in C57BL/6 mouse assessed as TGF-beta1 level at 50 mg/kg, ip qd for 7 days post BLM challenge measured on day 7 by ELISA (reference value: 75.39 pg/ml). The format is functional.
For data set [18], the system named is Mus musculus. Put plainly: Anti-inflammatory activity in BLM-induced C57BL/6 mouse model of acute lung neutrophilic inflammation assessed as reduction in total cell number in BALF at 25 and 50 mg/kg, ip qd for 7 days post BLM challenge measured on day 7. The data set is classed as functional, organism-based.
The subject of data set [19] is Mus musculus. Put plainly: Anti-inflammatory activity in LPS-induced C57BL/6 mouse model of acute lung injury assessed as reduction in hyperemia of pulmonary alveolar septa at 10 to 50 mg/kg, ip pretreated for 1 hr followed LPS challenge measured after 24 hrs by hematoxylin and eosin staining based microscopy. The data set is classed as functional, organism-based.

Data set [20] has as its system Mus musculus. The data set can be described thus: Anti-inflammatory activity in BLM-induced C57BL/6 mouse model of acute lung neutrophilic inflammation assessed as reduction in macrophage number in BALF at 25 and 50 mg/kg, ip qd for 7 days post BLM challenge measured on day 7. The data set is classed as functional, organism-based.
The subject of data set [21] is Mus musculus. Put plainly: Anti-inflammatory activity in LPS-induced C57BL/6 mouse model of acute lung injury assessed as reduction in neutrophil infiltration by measuring MPO activity at 10 to 50 mg/kg, ip pretreated for 1 hr followed LPS challenge measured after 24 hrs. The format is functional, organism-based.
Data set [22] deals with Mus musculus. The data set can be described thus: Anti-inflammatory activity in LPS-induced C57BL/6 mouse model of acute lung injury assessed as reduction in TNFalpha mRNA level pretreated intraperitoneally for 1 hr followed LPS challenge after 24 hrs by qRT-PCR method. The format is functional.
In data set [23] the test system is Mus musculus. Put plainly: Anti-inflammatory activity in LPS-induced C57BL/6 mouse model of acute lung injury assessed as reduction in TNFalpha level pretreated intraperitoneally for 1 hr followed LPS challenge after 24 hrs by ELISA. The data set is classed as functional.
For data set [24], the system named is Mus musculus. The data set can be described thus: Anti-inflammatory activity in LPS-induced C57BL/6 mouse model of acute lung injury assessed as intact alveolar structure at 10 to 50 mg/kg, ip pretreated for 1 hr followed LPS challenge measured after 24 hrs by hematoxylin and eosin staining based microscopy. The data set is classed as functional, organism-based.

In data set [25] the test system is Mus musculus. Put plainly: Anti-inflammatory activity in LPS-induced C57BL/6 mouse model of acute lung injury assessed as reduction in alveolar vascular permeability at 10 to 50 mg/kg, ip pretreated for 1 hr followed LPS challenge measured after 24 hrs by Evans blue dye based microscopy. The data set is classed as functional, organism-based.
Data set [26] relates to Mus musculus. Put plainly: Protection against BLM-induced lung fibrosis in C57BL/6 mouse assessed as TGF-beta1 level at 25 and 50 mg/kg, ip qd for 7 days post BLM challenge measured on day 7 by qRT-PCR method. The format is functional, organism-based.
The test system of data set [27] is Mus musculus. Put plainly: Anti-inflammatory activity in LPS-induced C57BL/6 mouse model of acute lung injury assessed as reduction in pulmonary edema by measuring lung wet and dry ratio at 10 to 50 mg/kg, ip pretreated for 1 hr followed LPS challenge after 24 hrs. The data set is classed as functional, organism-based.
For data set [28], the system named is Mus musculus. Put plainly: Anti-inflammatory activity in LPS-induced C57BL/6 mouse model of acute lung injury assessed as reduction in IL-6 level pretreated intraperitoneally for 1 hr followed LPS challenge after 24 hrs by ELISA. The data set is classed as functional.
Data set [29] relates to Mus musculus. The data set can be described thus: Anti-inflammatory activity in BLM-induced C57BL/6 mouse model of acute lung injury assessed as reduction in IL-6 level in BALF at 25 and 50 mg/kg, ip qd for 7 days post BLM challenge measured on day 7 by ELISA. The format is functional, organism-based.

A word on the inhibition in vivo: it is how much of the control response was suppressed. As for `CN(C)c1ccc(C(=O)NCCCCCCC(=O)NO)cc1`, the outcome in data set [1], in [3], in data set [7] and in data set [9] was Active. For the same molecule, the inhibition result in data set [2] is “Active”. Also, the Activity amounted to 0.56 U/g in data set [4], 1.92 mg/mL in data set [5] and 38.22 pg/mL in data set [6]. For the same molecule, the inhibition in vivo at 25 mg/kg in data set [8] came to 34%.
As for `O=C(CCCCCCC(=O)Nc1ccccc1)NO` [VORINOSTAT], the result in data set [10], in [11], in data set [13], in data set [15], in data set [18] and in [19] was Active. For the same molecule, the outcome in data set [20], in data set [21], in data set [24], in [25], in [26] and in data set [27] was Active. Also, the result in data set [29] was Active. In addition, the concentration in data set [12] fell in the range of 0.01 to 6 µM; in data set [14], 1 to 10 µM. Besides, the Activity result in data set [16] is “Dose-dependent effect”; in data set [17], 34.09 pg/mL; in [22], “Dose-dependent effect”; in data set [23], “Dose-dependent effect”; in data set [28], “Dose-dependent effect”.
